# The supplement of paper PMC10307832
# Columns and labels:
# Assay in all cases: relative viability (nuclei count vs DMSO), 5 days (fraction); higher = more cells survive
# [1] = compound: Cc1ccc(Nc2nccc(N(C)c3ccc4c(C)n(C)nc4c3)n2)cc1S(N)(=O)=O [Pazopanib] + CC(=O)Nc1cccc(-n2c(=O)n(C3CC3)c(=O)c3c(Nc4ccc(I)cc4F)n(C)c(=O)c(C)c32)c1 [Trametinib] (partner 0.02 µM)
# In short: (§1)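 Lung cancer cell lines in 1536-well plates were dosed by pin tool the day after seeding, either with one drug alone or with a fixed anchor-drug dose plus five library-drug doses (not always all listed) in √10 steps. After 5 days, cells were fixed and their nuclei stained in one step (final 0.05% Triton X-100, 1% formaldehyde, 1 ug/ml Hoechst), then counted on 4× images. Relative viability is the nuclei count in treated wells divided by that in vehicle wells. Values are medians of duplicate plates.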
# [2] = compound: Cc1ccc(C(=O)Nc2ccc(CN3CCN(C)CC3)c(C(F)(F)F)c2)cc1C#Cc1cnc2cccnn12 [Ponatinib] + O=C(CCCCCCC(=O)Nc1ccccc1)NO [Vorinostat] (partner 1 µM)
# In short: as §1
# [3] = compound: Cc1ccc(Nc2nccc(N(C)c3ccc4c(C)n(C)nc4c3)n2)cc1S(N)(=O)=O [Pazopanib] + CC1(C)CCC(c2ccc(Cl)cc2)=C(CN2CCN(c3ccc(C(=O)NS(=O)(=O)c4ccc(N[C@H](CCN5CCOCC5)CSc5ccccc5)c(S(=O)(=O)C(F)(F)F)c4)cc3)CC2)C1 [Navitoclax] (partner 0.5 µM)
# In short: as §1
# [4] = compound: Cc1ccc(C(=O)Nc2ccc(CN3CCN(C)CC3)c(C(F)(F)F)c2)cc1C#Cc1cnc2cccnn12 [Ponatinib] + COc1cc2c(Oc3ccc(NC(=O)C4(C(=O)Nc5ccc(F)cc5)CC4)cc3F)ccnc2cc1OCCCN1CCOCC1 [Foretinib] (partner 0.25 µM)
# In short: as §1
Cell Line,relative viability ([1]; first compound 0.01 µM),relative viability ([1]; first compound 0.03162 µM),relative viability ([1]; first compound 0.1 µM),relative viability ([1]; first compound 0.3162 µM),relative viability ([1]; first compound 1 µM),relative viability ([2]; first compound 0.002 µM),relative viability ([2]; first compound 0.006325 µM),relative viability ([2]; first compound 0.06325 µM),relative viability ([2]; first compound 0.2 µM),relative viability ([3]; first compound 0.01 µM),relative viability ([3]; first compound 0.03162 µM),relative viability ([3]; first compound 0.1 µM),relative viability ([3]; first compound 0.3162 µM),relative viability ([3]; first compound 1 µM),relative viability ([4]; first compound 0.002 µM),relative viability ([4]; first compound 0.006325 µM),relative viability ([4]; first compound 0.06325 µM),relative viability ([4]; first compound 0.2 µM)
201T,0.719,0.729,0.737,0.783,0.705,0.965,0.992,1.05,0.939,1.21,1.22,1.26,1.18,1.17,1.1,1.1,1.18,1.03
A549,–,–,–,–,–,–,–,–,–,1.16,1.18,1.21,1.21,1.26,0.965,0.941,1.13,0.887
A-427,0.7,0.882,0.679,0.71,0.753,0.829,0.904,1.03,0.881,1.03,1.07,0.977,0.941,1.04,1,1.19,1.11,0.715
ABC-1,–,–,–,–,–,0.786,1.06,0.988,0.994,–,–,–,–,–,1.01,0.995,1.15,1.09
BEN,1.05,1.04,0.916,1.08,0.925,0.562,0.631,0.666,0.546,0.0655,0.0679,0.0737,0.0724,0.0586,0.549,0.663,0.457,0.674
CAL-12T,0.32,0.437,0.331,0.437,0.446,0.958,0.666,0.864,0.876,1.26,1.15,1.25,1.27,1.34,1.16,0.979,1.21,1.09
COR-L23,0.511,0.649,0.698,0.625,0.773,0.31,0.403,0.52,0.462,0.971,1.08,0.985,0.978,1.06,0.931,0.896,0.929,0.796
COR-L 105,0.468,0.406,0.438,0.427,0.58,0.802,0.953,0.899,0.837,0.891,0.698,0.787,0.732,0.773,0.882,1.15,1.23,1.3
Calu-6,–,–,–,–,–,–,–,–,–,0.87,0.863,0.848,0.768,0.842,0.849,0.867,0.931,0.816
ChaGo-K-1,0.908,0.75,0.904,0.905,0.901,0.699,0.732,0.664,0.648,0.935,1.07,0.997,0.792,1.06,0.868,0.923,0.959,0.832
EBC-1,–,–,–,–,–,–,–,–,–,0.364,0.436,0.454,0.442,0.427,0.106,0.0969,0.092,0.115
